Test system: not listed separately
Experiment: Marine BODIS biodegradation
Conditions: day 7
Procedure: (§1) Firstly the environmental data were determined according to OECD 306 biodegradability and aquatic toxicity testing on the glucamides and the result is outlined in Tables 1 and 2.

Structure (SMILES)	Marine BODIS biodegradation Day 7 [%]
CCCCCCCC/C=C\CCCCCCCC(=O)N(C)CC(O)C(O)C(O)C(O)CO (centres unmarked) [Glucamide #5]	23
O=C([O-])c1ccccc1.[Na+] [Reference, sodium benzoate, reference compound]	66

Same assay, conditions: day 14

Structure (SMILES)	Marine BODIS biodegradation Day 14 [%]
CCCCCCCC/C=C\CCCCCCCC(=O)N(C)CC(O)C(O)C(O)C(O)CO (centres unmarked) [Glucamide #5]	33
O=C([O-])c1ccccc1.[Na+] [Reference, sodium benzoate, reference compound]	77

Same assay, conditions: day 21

Structure (SMILES)	Marine BODIS biodegradation Day 21 [%]
CCCCCCCC/C=C\CCCCCCCC(=O)N(C)CC(O)C(O)C(O)C(O)CO (centres unmarked) [Glucamide #5]	37
O=C([O-])c1ccccc1.[Na+] [Reference, sodium benzoate, reference compound]	81

Same assay, conditions: day 28

Structure (SMILES)	Marine BODIS biodegradation Day 28 [%]
CCCCCCCC/C=C\CCCCCCCC(=O)N(C)CC(O)C(O)C(O)C(O)CO (centres unmarked) [Glucamide #5]	42
O=C([O-])c1ccccc1.[Na+] [Reference, sodium benzoate, reference compound]	83

Test system: not listed separately
Experiment: OECD 306 biodegradation
Conditions: day 7

Structure (SMILES)	OECD 306 biodegradation Day 7 [%]
N.O=C(O)CS [ATG, Ammonium Thioglycolate]	9
CCCCCCCCCC(=O)N(C)CC(O)C(O)C(O)C(O)CO (centres unmarked) [Glucamide #1]	15
OCCS [MET, Mercaptoethanol]	5
CCCCCCCC/C=C\CCCCCCCCN[C@@H](CCSC)C(=O)O [OMet, N-Oleyl-Methionine]	60
O=C([O-])c1ccccc1.[Na+] [Reference, sodium benzoate, reference compound]	78
NC(N)=S [TU, Thiourea]	19

Same assay, conditions: day 14

Structure (SMILES)	OECD 306 biodegradation Day 14 [%]
N.O=C(O)CS [ATG, Ammonium Thioglycolate]	20
CCCCCCCCCC(=O)N(C)CC(O)C(O)C(O)C(O)CO (centres unmarked) [Glucamide #1]	25
OCCS [MET, Mercaptoethanol]	6
CCCCCCCC/C=C\CCCCCCCCN[C@@H](CCSC)C(=O)O [OMet, N-Oleyl-Methionine]	60
O=C([O-])c1ccccc1.[Na+] [Reference, sodium benzoate, reference compound]	74
NC(N)=S [TU, Thiourea]	32

Same assay, conditions: day 21

Structure (SMILES)	OECD 306 biodegradation Day 21 [%]
N.O=C(O)CS [ATG, Ammonium Thioglycolate]	33
CCCCCCCCCC(=O)N(C)CC(O)C(O)C(O)C(O)CO (centres unmarked) [Glucamide #1]	33
OCCS [MET, Mercaptoethanol]	8
CCCCCCCC/C=C\CCCCCCCCN[C@@H](CCSC)C(=O)O [OMet, N-Oleyl-Methionine]	60
O=C([O-])c1ccccc1.[Na+] [Reference, sodium benzoate, reference compound]	86
NC(N)=S [TU, Thiourea]	20

Same assay, conditions: day 28

Structure (SMILES)	OECD 306 biodegradation Day 28 [%]
N.O=C(O)CS [ATG, Ammonium Thioglycolate]	39
CCCCCCCCCC(=O)N(C)CC(O)C(O)C(O)C(O)CO (centres unmarked) [Glucamide #1]	31
OCCS [MET, Mercaptoethanol]	17
CCCCCCCC/C=C\CCCCCCCCN[C@@H](CCSC)C(=O)O [OMet, N-Oleyl-Methionine]	60
O=C([O-])c1ccccc1.[Na+] [Reference, sodium benzoate, reference compound]	68
NC(N)=S [TU, Thiourea]	55

Test system: Algae
Experiment: Aquatic toxicity testing, 72 hr Algae EC50
Assay type: cell-based
Conditions: definitive
Procedure: as §1

Structure (SMILES)	72 hr Algae EC50, Definitive result [µg/mL]
CCCCCCCCCC(=O)N(C)CC(O)C(O)C(O)C(O)CO (centres unmarked) [Glucamide #1]	165.24
CCCCCCCC/C=C\CCCCCCCC(=O)N(C)CC(O)C(O)C(O)C(O)CO (centres unmarked) [Glucamide #5]	4.55

Same assay, conditions: range-finding

Structure (SMILES)	72 hr Algae EC50, Range-finding result [µg/mL]
CCCCCCCCCC(=O)N(C)CC(O)C(O)C(O)C(O)CO (centres unmarked) [Glucamide #1]	335.40
CCCCCCCC/C=C\CCCCCCCC(=O)N(C)CC(O)C(O)C(O)C(O)CO (centres unmarked) [Glucamide #5]	6.199

Test system: not listed separately
Experiment: Corrosion test, rotating cylinder electrode (RCE), LPR
Conditions: 150° F., 2000 RPM, synthetic brine, 100% CO2, 12 ppm total inhibitor, vs 2 hr baseline
Excerpt: In order to evaluate the corrosion inhibition efficacy of the formulations, two different test methods were employed: rotating cylinder electrode (RCE) tests and high pressure, high temperature (HPHT) autoclave weight loss tests. For all testing, the following standard brine composition was used (as outlined in table 3):
A gas composition of 100% CO2 was used throughout testing.
The metallurgy of the coupons tested was C1018 carbon steel for RCE testing and HPHT autoclave testing. Coupons were polished mechanically using 320 grit silicon-carbide (SiC) paper, 400 grit SiC paper, then 600 grit SIC paper and rinsed with water then acetone prior to testing.
The rotating cylinder electrode (RCE) tests were conducted in Pyrex™ glass reaction kettles that were heated to 150° F. The testing solution was comprised of 900 mL of brine. The electrode rotation rate was set at 2000 RPM, which generated a wall shear stress of 7.0 Pa. Linear polarization resistance (LPR) measurements were made with a Gamry electrochemical measurement system. The working electrode was made of a 1018 carbon steel (CS) cylinder with a surface area of 3.16 cm^2. A Hastelloy C276 electrode was used as a pseudo-reference, and a titanium rod was used as the counter electrode. […] The baseline corrosion rate corresponds to the blank corrosion value. Upon completion of the tests, the electrodes were cleaned in an inhibited acid bath according to ASTM G1 C.3.5, and weighed to 0.1 mg.

Structure (SMILES)	Protection 2 hr after Cl dose [%]	Protection Final 3 hr [%]
N.O=C(O)CS [ATG, Ammonium Thioglycolate]	71.8	91.4
N.N.O=S(O)(O)=S [ATS, Ammoniumthiosulfate]	75.6	91.2
CCCCCCCCCC(=O)N(C)CC(O)C(O)C(O)C(O)CO (centres unmarked) [Glucamide #1]	72.1	92.7
CC(C)CCC(C)CCC(C)CC(=O)N(C)CC(O)C(O)C(O)C(O)CO (centres unmarked) [Glucamide #2]	79.1	93.8
CCCCCCCCCC(=O)N(C)CC1OC(CO)C(O)C1O (centres unmarked) [Glucamide #3]	73.4	93.5
CC(C)CCC(C)CCC(C)CC(=O)N(C)CC1OC(CO)C(O)C1O (centres unmarked) [Glucamide #4]	76.0	94.3
CCCCCCCC/C=C\CCCCCCCC(=O)N(C)CC(O)C(O)C(O)C(O)CO (centres unmarked) [Glucamide #5]	75.7	94.0
CCCCCCCC/C=C\CCCCCCCC(=O)N(C)CC1OC(CO)C(O)C1O (centres unmarked) [Glucamide #6]	76.7	94.2
OCCS [MET, Mercaptoethanol]	74.4	91.4
CCCCCCCC/C=C\CCCCCCCCN[C@@H](CCSC)C(=O)O [OMet, N-Oleyl-Methionine]	77.6	92.7
